Columns and labels:
Assay type in all cases: in vivo
[1] = system: Beet Armyworm (Spodoptera exigua, LAPHEG); test: Bioassays on Beet Armyworm (BAW), 128-well diet tray assay; conditions: Spodoptera exigua; Table ABC: Biological Results; species BAW; read-out: BAW
Method in brief: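 Percent larval mortality, averaged across eight wells, scored after five to seven days at 25° C. under 14:10 light-dark. Each well held one to five second instars feeding on diet dosed at 50 μg/cm^2 with compound from 90:10 acetone-water, solvent dried off.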

[2] = system: Cabbage Looper (Trichoplusia ni, TRIPNI); test: Bioassays on Cabbage Looper (CL), 128-well diet tray assay; conditions: Trichoplusia ni; Table ABC: Biological Results; species CL; read-out: CL
Method in brief: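 Second-instar larvae (1–5 per well) placed on artificial diet surface-treated with 50 μg/cm^2 test molecule applied in 90:10 acetone-water and dried. Held at 25° C., 14:10 light-dark, for five to seven days. Percent mortality scored per well and averaged over eight wells.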

[3] = system: Yellow Fever Mosquito (Aedes aegypti, AEDSAE); conditions: Table ABC: Biological Results; species YFM
Method in brief: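 Compounds from 4000 ppm DMSO stocks were diluted in 90:10 water/acetone and dispensed into wells, then infested with about 1-day-old larvae in liver-powder water. Covered plates were held at room temperature for 3 days and each well was scored for mortality against a rating scale; six replicate plates per compound.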

SMILES	pest or weed control at 50 µg/cm2 [1] [%]	pest or weed control at 50 µg/cm2 [2] [%]	YFM [3]
Nc1c(F)ccc(NC(=O)c2cc(NC(=O)[C@H]3[C@H](c4cc(Cl)cc(S(F)(F)(F)(F)F)c4)C3(Cl)Cl)ccc2Cl)c1F (relative stereo) [F1259, trans-N-(3-Amino-2,4-difluorophenyl)-2-chloro-5-(2,2-dichloro-3-(3-chloro-5-(pentafluoro-λ^6-sulfanyl)phenyl)cyclopropane-1-carboxamido)benzamide]	50 to 100	50 to 100	A (80–100)
Cc1c(F)cc(NC(=O)[C@H]2[C@H](c3ccc(F)c(Cl)c3)C2(Cl)Cl)cc1C(=O)Nc1ccc(F)cc1 (relative stereo) [F1278, trans-5-(2,2-Dichloro-3-(3-chloro-4-fluorophenyl)cyclopropane-1-carboxamido)-3-fluoro-N-(4-fluorophenyl)-2-methylbenzamide]	50 to 100	50 to 100	A (80–100)
Cc1c(F)cc(NC(=O)[C@H]2[C@H](c3ccc(F)c(Cl)c3)C2(Cl)Cl)cc1C(=O)Nc1ccc(F)cc1F (relative stereo) [F1279, trans-5-(2,2-Dichloro-3-(3-chloro-4-fluorophenyl)cyclopropane-1-carboxamido)-N-(2,4-difluorophenyl)-3-fluoro-2-methylbenzamide]	50 to 100	50 to 100	B (More than 0 – Less than 80)
O=C(Nc1ccc(F)c(NC(=O)C(F)F)c1F)c1cc(NC(=O)[C@H]2[C@H](c3cccc(I)c3)C2(Cl)Cl)ccc1Cl (relative stereo) [F1281, trans-2-chloro-5-(2,2-dichloro-3-(3-iodophenyl)cyclopropane-1-carboxamido)-N-(3-(2,2-difluoroacetamido)-2,4-difluorophenyl)benzamide]	50 to 100	50 to 100	A (80–100)
O=C(Nc1ccc(F)c(Br)c1)c1cc(NC(=O)[C@H]2[C@H](c3cc(Cl)cc(Cl)c3)C2(Cl)Cl)ccc1Cl (relative stereo) [F1304, trans-N-(3-bromo-4-fluorophenyl)-2-chloro-5-(2,2-dichloro-3-(3,5-dichlorophenyl)cyclopropane-1-carboxamido)benzamide]	50 to 100	50 to 100	A (80–100)
O=C(Nc1ccc(F)cc1Br)c1cc(NC(=O)[C@H]2[C@H](c3cc(Cl)cc(Cl)c3)C2(Cl)Cl)ccc1Cl (relative stereo) [F1305, trans-N-(2-Bromo-4-fluorophenyl)-2-chloro-5-(2,2-dichloro-3-(3,5-dichlorophenyl)cyclopropane-1-carboxamido)benzamide]	50 to 100	50 to 100	A (80–100)
O=C(Nc1c(F)cc(F)cc1Br)c1cc(NC(=O)[C@H]2[C@H](c3cc(Cl)cc(Cl)c3)C2(Cl)Cl)ccc1Cl (relative stereo) [F1309, trans-N-(2-Bromo-4,6-difluorophenyl)-2-chloro-5-(2,2-dichloro-3-(3,5-dichlorophenyl)cyclopropane-1-carboxamido)benzamide]	50 to 100	50 to 100	A (80–100)
C=Cc1cc(NC(=O)c2cc(NC(=O)[C@H]3[C@H](c4cc(Cl)cc(Cl)c4)C3(Cl)Cl)ccc2Cl)ccc1F (relative stereo) [F1311, trans-2-chloro-5-(2,2-dichloro-3-(3,5-dichlorophenyl)cyclopropane-1-carboxamido)-N-(4-fluoro-3-vinylphenyl)benzamide]	50 to 100	50 to 100	A (80–100)
C=Cc1cc(F)ccc1NC(=O)c1cc(NC(=O)[C@H]2[C@H](c3cc(Cl)cc(Cl)c3)C2(Cl)Cl)ccc1Cl (relative stereo) [F1312, trans-2-Chloro-5-(2,2-dichloro-3-(3,5-dichlorophenyl)cyclopropane-1-carboxamido)-N-(4-fluoro-2-vinylphenyl)benzamide]	50 to 100	50 to 100	A (80–100)
C=Cc1ccc(NC(=O)c2cc(NC(=O)[C@H]3[C@H](c4cc(Cl)cc(Cl)c4)C3(Cl)Cl)ccc2Cl)c(F)c1 (relative stereo) [F1313, trans-2-Chloro-5-(2,2-dichloro-3-(3,5-dichlorophenyl)cyclopropane-1-carboxamido)-N-(2-fluoro-4-vinylphenyl)benzamide]	50 to 100	50 to 100	A (80–100)
C=Cc1c(F)ccc(NC(=O)c2cc(NC(=O)[C@H]3[C@H](c4cc(Cl)cc(Cl)c4)C3(Cl)Cl)ccc2Cl)c1F (relative stereo) [F1314, trans-2-Chloro-5-(2,2-dichloro-3-(3,5-dichlorophenyl)cyclopropane-1-carboxamido)-N-(2,4-difluoro-3-vinylphenyl)benzamide]	50 to 100	50 to 100	A (80–100)
C=Cc1cc(NC(=O)c2cc(NC(=O)[C@H]3[C@H](c4cc(Cl)cc(Cl)c4)C3(Cl)Cl)ccc2Cl)c(F)cc1F (relative stereo) [F1315, trans-2-Chloro-5-(2,2-dichloro-3-(3,5-dichlorophenyl)cyclopropane-1-carboxamido)-N-(2,4-difluoro-5-vinylphenyl)benzamide]	50 to 100	50 to 100	A (80–100)
C=Cc1cc(F)cc(F)c1NC(=O)c1cc(NC(=O)[C@H]2[C@H](c3cc(Cl)cc(Cl)c3)C2(Cl)Cl)ccc1Cl (relative stereo) [F1316, trans-2-Chloro-5-(2,2-dichloro-3-(3,5-dichlorophenyl)cyclopropane-1-carboxamido)-N-(2,4-difluoro-6-vinylphenyl)benzamide]	50 to 100	50 to 100	A (80–100)
C=Cc1cc(NC(=O)c2cc(NC(=O)[C@H]3[C@H](c4cc(Cl)cc(Cl)c4)C3(Cl)Cl)ccc2Cl)cc(F)c1F (relative stereo) [F1317, trans-2-Chloro-5-(2,2-dichloro-3-(3,5-dichlorophenyl)cyclopropane-1-carboxamido)-N-(3,4-difluoro-5-vinylphenyl)benzamide]	50 to 100	50 to 100	A (80–100)
C=C(F)c1cc(NC(=O)c2cc(NC(=O)[C@H]3[C@H](c4cc(Cl)cc(Cl)c4)C3(Cl)Cl)ccc2Cl)ccc1F (relative stereo) [F1318, trans-2-Chloro-5-(2,2-dichloro-3-(3,5-dichlorophenyl)cyclopropane-1-carboxamido)-N-(4-fluoro-3-(1-fluorovinyl)phenyl)benzamide]	50 to 100	50 to 100	A (80–100)
C=C(F)c1cc(F)ccc1NC(=O)c1cc(NC(=O)[C@H]2[C@H](c3cc(Cl)cc(Cl)c3)C2(Cl)Cl)ccc1Cl (relative stereo) [F1319, trans-2-Chloro-5-(2,2-dichloro-3-(3,5-dichlorophenyl)cyclopropane-1-carboxamido)-N-(4-fluoro-2-(1-fluorovinyl)phenyl)benzamide]	50 to 100	50 to 100	A (80–100)

— US20250228239A1, “MOLECULES HAVING PESTICIDAL UTILITY, AND INTERMEDIATES, COMPOSITIONS, AND PROCESSES, RELATED THERETO” (priority 2024, published 2025)
